Reference: patent US20100242139A1, “XENOHORMESIS BASED COMPOSITIONS AND METHODS” (President and Fellows of Harvard College, priority 2006, published 2010)

How the values were obtained:
[1] = tested on: FL5.12 cells; experiment: growth of hematopoietic cell line FL5.12; format: cell-based; details: 0.1, 1, 10 and 100 μM for 24 hours; in the presence of IL-3; Coulter counter
From the text: Hematopoietic cell line FL5.12 cells were seed at equal density and grown in the presence of IL-3, a growth factor.

[2] = molecular target: MST2(h) (Homo sapiens, UniProt Q13188); experiment: kinase panel activity, MST2(h); format: biochemical; details: compound at 20 μM; vs reference with no compound
[3] = molecular target: IKKα(h) (Homo sapiens, UniProt O15111); experiment: kinase panel activity, IKKα(h); format: biochemical; details: compound at 20 μM; vs reference with no compound
[4] = molecular target: IRR(h) (Homo sapiens, UniProt P14616); experiment: kinase panel activity, IRR(h); format: biochemical; details: compound at 20 μM; vs reference with no compound
[5] = tested on: IRS-1; experiment: IRS-1 expression and phosphorylation on a high calorie diet; format: in vivo
From the text: In addition, IRS-1 is phosphorylated at serine 307 (referred to PIRS-1).

[6] = tested on: AMPK(r); experiment: kinase panel activity, AMPK(r); format: biochemical, rat; details: compound at 20 μM; vs reference with no compound
[7] = molecular target: PKBγ(h) (Homo sapiens, UniProt Q9Y243); experiment: kinase panel activity, PKBγ(h); format: biochemical
[8] = molecular target: PKCζ(h) (Homo sapiens, UniProt Q05513); experiment: kinase panel activity, PKCζ(h); format: biochemical; details: compound at 20 μM; vs reference with no compound
[9] = molecular target: Flt3(h) (Homo sapiens, UniProt P36888); experiment: kinase panel activity, Flt3(h); format: biochemical; details: compound at 20 μM; vs reference with no compound
[10] = molecular target: Abl(h) (Homo sapiens, UniProt P00519); experiment: kinase panel activity, Abl(h); format: biochemical; details: compound at 20 μM; vs reference with no compound
[11] = molecular target: PAK3(h) (Homo sapiens, UniProt O75914); experiment: kinase panel activity, PAK3(h); format: biochemical; details: compound at 20 μM; vs reference with no compound
[12] = molecular target: PKD2(h) (Homo sapiens, UniProt Q9BZL6); experiment: kinase panel activity, PKD2(h); format: biochemical; details: compound at 20 μM; vs reference with no compound
[13] = molecular target: PAK2(h) (Homo sapiens, UniProt Q13177); experiment: kinase panel activity, PAK2(h); format: biochemical; details: compound at 20 μM; vs reference with no compound
[14] = molecular target: PKCγ(h) (Homo sapiens, UniProt P05129); experiment: kinase panel activity, PKCγ(h); format: biochemical; details: compound at 20 μM; vs reference with no compound
[15] = molecular target: PKCδ(h) (Homo sapiens, UniProt Q05655); experiment: kinase panel activity, PKCδ(h); format: biochemical; details: compound at 20 μM; vs reference with no compound
[16] = molecular target: Abl(T315I)(h) (Homo sapiens, UniProt P00519, T315I); experiment: kinase panel activity, Abl(T315I)(h); format: biochemical; details: compound at 20 μM; vs reference with no compound
[17] = molecular target: PKCβI(h) (Homo sapiens, UniProt P05771); experiment: kinase panel activity, PKCβI(h); format: biochemical; details: compound at 20 μM; vs reference with no compound
[18] = molecular target: JAK2(h) (Homo sapiens, UniProt O60674); experiment: kinase panel activity, JAK2(h); format: biochemical; details: compound at 20 μM; vs reference with no compound
[19] = molecular target: PKCθ(h) (Homo sapiens, UniProt Q04759); experiment: kinase panel activity, PKCθ(h); format: biochemical; details: compound at 20 μM; vs reference with no compound

Chain of IRR(h) (P14616 27-1297): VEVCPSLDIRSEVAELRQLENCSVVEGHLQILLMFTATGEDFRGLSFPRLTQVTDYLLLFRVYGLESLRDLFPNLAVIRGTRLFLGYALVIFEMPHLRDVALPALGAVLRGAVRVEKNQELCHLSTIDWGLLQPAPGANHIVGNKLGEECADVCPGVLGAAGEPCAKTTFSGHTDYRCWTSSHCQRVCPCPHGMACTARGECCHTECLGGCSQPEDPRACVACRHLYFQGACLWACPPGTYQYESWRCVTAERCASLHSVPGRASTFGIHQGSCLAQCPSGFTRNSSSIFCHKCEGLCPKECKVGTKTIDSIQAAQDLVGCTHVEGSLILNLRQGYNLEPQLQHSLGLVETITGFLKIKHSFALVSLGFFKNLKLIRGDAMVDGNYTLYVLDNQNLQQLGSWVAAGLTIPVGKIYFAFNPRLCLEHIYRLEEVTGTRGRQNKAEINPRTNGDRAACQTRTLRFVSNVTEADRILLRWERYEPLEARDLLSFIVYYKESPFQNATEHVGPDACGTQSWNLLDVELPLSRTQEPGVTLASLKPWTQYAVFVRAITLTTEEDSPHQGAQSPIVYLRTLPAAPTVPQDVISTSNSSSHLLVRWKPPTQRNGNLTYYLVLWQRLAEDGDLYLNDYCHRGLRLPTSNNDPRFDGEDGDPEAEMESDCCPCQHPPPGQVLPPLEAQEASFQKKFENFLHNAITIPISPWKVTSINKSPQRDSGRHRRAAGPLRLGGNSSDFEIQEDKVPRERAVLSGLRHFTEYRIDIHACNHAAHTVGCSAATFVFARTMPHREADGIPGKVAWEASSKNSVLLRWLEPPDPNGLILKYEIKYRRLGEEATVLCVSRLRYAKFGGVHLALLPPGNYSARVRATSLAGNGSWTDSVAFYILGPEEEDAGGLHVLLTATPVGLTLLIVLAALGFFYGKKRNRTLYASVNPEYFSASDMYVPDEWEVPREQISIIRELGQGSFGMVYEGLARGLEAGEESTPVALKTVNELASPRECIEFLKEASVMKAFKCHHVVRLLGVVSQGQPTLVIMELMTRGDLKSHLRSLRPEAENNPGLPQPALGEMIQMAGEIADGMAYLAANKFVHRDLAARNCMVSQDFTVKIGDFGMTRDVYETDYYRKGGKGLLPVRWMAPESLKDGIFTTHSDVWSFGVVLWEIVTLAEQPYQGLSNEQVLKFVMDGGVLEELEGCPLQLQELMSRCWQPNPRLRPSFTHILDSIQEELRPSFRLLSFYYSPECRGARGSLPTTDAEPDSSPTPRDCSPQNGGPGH
Chain of IKKα(h) (O15111 whole entry): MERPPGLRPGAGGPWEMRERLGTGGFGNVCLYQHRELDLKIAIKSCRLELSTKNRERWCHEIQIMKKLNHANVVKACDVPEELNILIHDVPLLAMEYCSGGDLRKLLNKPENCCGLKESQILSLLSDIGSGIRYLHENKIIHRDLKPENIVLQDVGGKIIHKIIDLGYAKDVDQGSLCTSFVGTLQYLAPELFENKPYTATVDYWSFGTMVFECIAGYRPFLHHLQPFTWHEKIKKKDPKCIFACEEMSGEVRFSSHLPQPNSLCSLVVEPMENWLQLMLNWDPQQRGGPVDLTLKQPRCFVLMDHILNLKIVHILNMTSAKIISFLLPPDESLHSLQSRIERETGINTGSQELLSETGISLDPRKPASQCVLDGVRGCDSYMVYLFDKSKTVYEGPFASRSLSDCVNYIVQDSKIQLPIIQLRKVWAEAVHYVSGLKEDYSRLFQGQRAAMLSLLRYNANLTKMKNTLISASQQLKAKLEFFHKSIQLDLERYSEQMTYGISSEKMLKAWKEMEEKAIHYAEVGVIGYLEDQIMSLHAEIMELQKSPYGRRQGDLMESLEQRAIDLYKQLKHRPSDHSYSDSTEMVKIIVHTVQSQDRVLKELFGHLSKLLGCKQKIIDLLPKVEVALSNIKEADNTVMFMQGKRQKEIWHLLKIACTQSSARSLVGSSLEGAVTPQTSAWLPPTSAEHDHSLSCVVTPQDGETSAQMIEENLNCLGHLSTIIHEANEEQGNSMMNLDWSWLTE
Chain of PKBγ(h) (Q9Y243 whole entry): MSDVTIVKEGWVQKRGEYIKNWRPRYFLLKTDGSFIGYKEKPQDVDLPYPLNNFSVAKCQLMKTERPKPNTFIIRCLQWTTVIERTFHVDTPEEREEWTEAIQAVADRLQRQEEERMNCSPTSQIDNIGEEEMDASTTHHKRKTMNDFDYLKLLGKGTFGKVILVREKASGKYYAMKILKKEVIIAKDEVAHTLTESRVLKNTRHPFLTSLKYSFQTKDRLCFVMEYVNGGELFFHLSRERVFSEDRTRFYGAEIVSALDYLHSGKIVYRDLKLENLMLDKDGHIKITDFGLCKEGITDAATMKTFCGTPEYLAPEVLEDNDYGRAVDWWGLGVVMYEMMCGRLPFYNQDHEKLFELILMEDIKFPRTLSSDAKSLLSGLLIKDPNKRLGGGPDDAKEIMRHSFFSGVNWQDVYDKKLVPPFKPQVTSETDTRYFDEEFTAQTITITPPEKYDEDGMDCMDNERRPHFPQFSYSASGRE
Chain of MST2(h) (Q13188 whole entry): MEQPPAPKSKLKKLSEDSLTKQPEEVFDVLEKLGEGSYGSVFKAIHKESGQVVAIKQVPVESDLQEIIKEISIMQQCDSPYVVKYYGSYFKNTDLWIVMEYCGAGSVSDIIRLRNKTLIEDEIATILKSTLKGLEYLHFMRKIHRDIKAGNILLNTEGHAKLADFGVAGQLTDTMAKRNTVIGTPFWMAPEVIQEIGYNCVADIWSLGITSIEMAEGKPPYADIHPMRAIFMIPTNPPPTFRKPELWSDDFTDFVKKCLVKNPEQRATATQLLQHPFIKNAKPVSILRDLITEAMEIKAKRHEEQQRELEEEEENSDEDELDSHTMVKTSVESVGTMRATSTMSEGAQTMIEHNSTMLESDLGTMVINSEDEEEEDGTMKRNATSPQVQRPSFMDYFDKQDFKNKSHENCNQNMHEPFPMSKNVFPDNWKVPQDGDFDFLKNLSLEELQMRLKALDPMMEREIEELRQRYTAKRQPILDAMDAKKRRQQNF
Chain of PKD2(h) (Q9BZL6 whole entry): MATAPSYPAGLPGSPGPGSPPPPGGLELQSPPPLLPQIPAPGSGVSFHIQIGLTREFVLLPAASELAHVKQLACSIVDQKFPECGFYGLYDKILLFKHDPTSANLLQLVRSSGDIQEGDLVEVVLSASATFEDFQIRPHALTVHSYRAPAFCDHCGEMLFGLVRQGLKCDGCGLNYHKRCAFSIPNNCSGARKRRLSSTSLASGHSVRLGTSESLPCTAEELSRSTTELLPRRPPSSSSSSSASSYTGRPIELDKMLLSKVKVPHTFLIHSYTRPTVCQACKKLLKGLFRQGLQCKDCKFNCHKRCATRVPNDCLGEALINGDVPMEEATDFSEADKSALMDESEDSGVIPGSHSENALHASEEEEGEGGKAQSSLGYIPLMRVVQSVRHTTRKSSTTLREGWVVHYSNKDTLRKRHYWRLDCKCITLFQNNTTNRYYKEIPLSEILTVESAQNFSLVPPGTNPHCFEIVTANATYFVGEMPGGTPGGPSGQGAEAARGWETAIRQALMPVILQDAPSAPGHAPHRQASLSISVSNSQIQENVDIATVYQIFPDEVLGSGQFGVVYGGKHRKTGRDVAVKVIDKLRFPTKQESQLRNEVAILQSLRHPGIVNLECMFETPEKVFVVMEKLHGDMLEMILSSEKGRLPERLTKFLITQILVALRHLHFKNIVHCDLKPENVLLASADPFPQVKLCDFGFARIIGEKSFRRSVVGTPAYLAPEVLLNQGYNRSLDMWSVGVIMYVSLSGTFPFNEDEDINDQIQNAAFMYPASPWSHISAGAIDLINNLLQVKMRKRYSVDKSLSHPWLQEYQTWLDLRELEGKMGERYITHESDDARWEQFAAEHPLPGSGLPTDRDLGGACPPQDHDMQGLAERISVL
Chain of PKCζ(h) (Q05513 whole entry): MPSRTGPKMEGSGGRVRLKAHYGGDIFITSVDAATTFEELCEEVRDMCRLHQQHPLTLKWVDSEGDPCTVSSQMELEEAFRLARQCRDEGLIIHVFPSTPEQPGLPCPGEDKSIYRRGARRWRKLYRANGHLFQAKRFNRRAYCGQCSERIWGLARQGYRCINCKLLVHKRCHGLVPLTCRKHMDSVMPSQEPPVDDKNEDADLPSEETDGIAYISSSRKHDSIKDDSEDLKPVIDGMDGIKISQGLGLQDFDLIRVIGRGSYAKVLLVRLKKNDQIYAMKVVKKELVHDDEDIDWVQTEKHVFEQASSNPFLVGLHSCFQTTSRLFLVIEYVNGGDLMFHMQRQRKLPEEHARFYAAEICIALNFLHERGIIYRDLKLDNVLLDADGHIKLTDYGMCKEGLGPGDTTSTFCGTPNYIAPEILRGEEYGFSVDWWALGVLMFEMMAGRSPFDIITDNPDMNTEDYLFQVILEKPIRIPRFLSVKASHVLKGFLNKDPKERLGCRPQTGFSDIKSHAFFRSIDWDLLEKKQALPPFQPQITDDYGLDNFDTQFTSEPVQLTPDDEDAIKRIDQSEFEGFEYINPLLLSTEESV
Chain of PAK2(h) (Q13177 whole entry): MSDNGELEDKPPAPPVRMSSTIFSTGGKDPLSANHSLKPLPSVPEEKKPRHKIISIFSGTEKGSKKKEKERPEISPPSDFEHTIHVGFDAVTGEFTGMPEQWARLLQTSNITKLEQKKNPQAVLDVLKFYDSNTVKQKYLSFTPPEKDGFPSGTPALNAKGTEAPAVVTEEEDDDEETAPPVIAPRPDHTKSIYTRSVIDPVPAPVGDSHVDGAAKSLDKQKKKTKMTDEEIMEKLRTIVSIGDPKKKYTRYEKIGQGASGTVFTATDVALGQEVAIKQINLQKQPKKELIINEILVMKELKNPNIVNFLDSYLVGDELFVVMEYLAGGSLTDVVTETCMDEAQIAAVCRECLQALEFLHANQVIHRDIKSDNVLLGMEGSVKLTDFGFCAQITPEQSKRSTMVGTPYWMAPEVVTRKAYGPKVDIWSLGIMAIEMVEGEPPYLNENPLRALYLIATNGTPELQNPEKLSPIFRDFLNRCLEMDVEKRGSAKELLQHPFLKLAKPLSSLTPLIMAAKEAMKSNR

`Oc1ccc(C=Cc2cc(O)cc(O)c2)cc1` [resveratrol, 3,5,4′-trihydroxystilbene] was tested, and the “inhibition of FL5.12 cell growth” value [1] was “dose dependent inhibition”, the “percent activity of MST2(h)” value [2] was 73% and the “percent activity of IKKα(h)” value [3] was 40%. The “percent activity of IRR(h)” value [4] was 40%, the “expression level of IRS-1” value ([5]; approximately 22 mg/kg resveratrol added to diet) was “significantly reduced” and the “proportion of phosphorylated IRS-1 (PIRS-1, serine 307)” value ([5]; resveratrol treatment) was “increases”. For the same compound, the “percent activity of AMPK(r)” value [6] was 39% and the activity at 20 µM ([7]; read-out: percent activity of PKBγ(h)) was 89%.
For `O=C(O)[C@H]1O[C@@H](Oc2ccc(/C=C/c3cc(O)cc(O)c3)cc2)[C@H](O)[C@@H](O)[C@@H]1O` [Res 4′-Gluc, resveratrol-4-glucuronide], the “percent activity of PKCζ(h)” value [8] was 104%, the “percent activity of Flt3(h)” value [9] was 48% and the “percent activity of Abl(h)” value [10] was 97%. The “percent activity of MST2(h)” value [2] was 120%, the “percent activity of PAK3(h)” value [11] was 75% and the “percent activity of PKD2(h)” value [12] was 113%. The “percent activity of IKKα(h)” value [3] was 113%, the “percent activity of PAK2(h)” value [13] was 105% and the “percent activity of PKCγ(h)” value [14] was 77%. For the same compound, the “percent activity of IRR(h)” value [4] was 93%, the “percent activity of PKCδ(h)” value [15] was 110% and the “percent activity of Abl(T315I)(h)” value [16] was 93%. The “percent activity of PKCβI(h)” value [17] was 119%, the “percent activity of JAK2(h)” value [18] was 95% and the “percent activity of AMPK(r)” value [6] was 43%. The “percent activity of PKBγ(h)” value ([7]; compound at 20 μM, vs reference with no compound) was 101% and the “percent activity of PKCθ(h)” value [19] was 103%.
